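96-well plates; 48 h exposure; 5 concentrations. Endpoints by linear interpolation between flanking doses. Not reached: highest tested concentration assigned. Abbreviation: GI50, concentration required for 50% inhibition of growth. The concentration for full growth arrest is given as TGI.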
Assays:
Test in all cases: NCI-60 cell line screen, 48 h
OVCAR-8 ovarian = tested on: OVCAR-8 ovarian
DU-145 prostate = tested on: DU-145 prostate
HL-60(TB) leukemia = tested on: HL-60(TB) leukemia
M14 melanoma = tested on: M14 melanoma
TK-10 renal = tested on: TK-10 renal
MALME-3M melanoma = tested on: MALME-3M melanoma
SK-MEL-5 melanoma = tested on: SK-MEL-5 melanoma
OVCAR-5 ovarian = tested on: OVCAR-5 ovarian
CAKI-1 renal = tested on: CAKI-1 renal
OVCAR-4 ovarian = tested on: OVCAR-4 ovarian
SNB-75 CNS = tested on: SNB-75 CNS
A498 renal = tested on: A498 renal
LOX IMVI melanoma = tested on: LOX IMVI melanoma
COLO 205 colon = tested on: COLO 205 colon
SF-268 CNS = tested on: SF-268 CNS
NCI/ADR-RES ovarian = tested on: NCI/ADR-RES ovarian
K-562 leukemia = tested on: K-562 leukemia
SF-539 CNS = tested on: SF-539 CNS
MCF7 breast = tested on: MCF7 breast
NCI-H23 lung = tested on: NCI-H23 lung
HOP-62 NSCLC = tested on: HOP-62 NSCLC
HCT-116 colon = tested on: HCT-116 colon
SF-295 CNS = tested on: SF-295 CNS
IGROV1 ovarian = tested on: IGROV1 ovarian
MDA-MB-231 breast = tested on: MDA-MB-231 breast
NCI-H226 lung = tested on: NCI-H226 lung
U251 CNS = tested on: U251 CNS
SW-620 colon = tested on: SW-620 colon
RPMI-8226 leukemia = tested on: RPMI-8226 leukemia
NCI-H460 lung = tested on: NCI-H460 lung
SR leukemia = tested on: SR leukemia
HCT-15 colon = tested on: HCT-15 colon
NCI-H522 lung = tested on: NCI-H522 lung
BT-549 breast = tested on: BT-549 breast
MDA-MB-435 = tested on: MDA-MB-435
HS 578T breast = tested on: HS 578T breast
CCRF-CEM leukemia = tested on: CCRF-CEM leukemia
ACHN renal = tested on: ACHN renal
SK-MEL-2 melanoma = tested on: SK-MEL-2 melanoma
786-0 renal = tested on: 786-0 renal
EKVX NSCLC = tested on: EKVX NSCLC
SK-OV-3 ovarian = tested on: SK-OV-3 ovarian
SN12C renal = tested on: SN12C renal
T-47D breast = tested on: T-47D breast
A549 NSCLC = tested on: A549 NSCLC
OVCAR-3 ovarian = tested on: OVCAR-3 ovarian
UACC-62 melanoma = tested on: UACC-62 melanoma
MOLT-4 leukemia = tested on: MOLT-4 leukemia
HOP-92 NSCLC = tested on: HOP-92 NSCLC
HCC-2998 colon = tested on: HCC-2998 colon
PC-3 prostate = tested on: PC-3 prostate
SK-MEL-28 melanoma = tested on: SK-MEL-28 melanoma
KM12 colon = tested on: KM12 colon
UO-31 renal = tested on: UO-31 renal

COc1ccc2[nH]cc(-c3nc(-c4c[nH]c5ncccc45)cs3)c2c1
GI50 (OVCAR-8 ovarian): 4.7 µM | TGI (OVCAR-8 ovarian): > 100 µM | GI50 (DU-145 prostate): 5.69 µM | TGI (DU-145 prostate): > 100 µM | GI50 (HL-60(TB) leukemia): 1.81 µM | TGI (HL-60(TB) leukemia): > 100 µM | GI50 (M14 melanoma): 2.99 µM | TGI (M14 melanoma): > 100 µM | GI50 (TK-10 renal): 5.47 µM | TGI (TK-10 renal): > 100 µM | GI50 (MALME-3M melanoma): 4.95 µM | TGI (MALME-3M melanoma): > 100 µM | GI50 (SK-MEL-5 melanoma): 2.87 µM | TGI (SK-MEL-5 melanoma): > 100 µM | GI50 (OVCAR-5 ovarian): > 100 µM | TGI (OVCAR-5 ovarian): > 100 µM | GI50 (CAKI-1 renal): 2.05 µM | TGI (CAKI-1 renal): > 100 µM | GI50 (OVCAR-4 ovarian): 6.89 µM | TGI (OVCAR-4 ovarian): > 100 µM | GI50 (SNB-75 CNS): 2.31 µM | TGI (SNB-75 CNS): > 100 µM | GI50 (A498 renal): 1.16 µM | TGI (A498 renal): > 100 µM | GI50 (LOX IMVI melanoma): 2.83 µM | TGI (LOX IMVI melanoma): > 100 µM | GI50 (COLO 205 colon): 0.661 µM | TGI (COLO 205 colon): 3.88 µM | GI50 (SF-268 CNS): 6.66 µM | TGI (SF-268 CNS): > 100 µM | GI50 (NCI/ADR-RES ovarian): 3.75 µM | TGI (NCI/ADR-RES ovarian): > 100 µM | GI50 (K-562 leukemia): 2.68 µM | TGI (K-562 leukemia): > 100 µM | GI50 (SF-539 CNS): 4.88 µM | TGI (SF-539 CNS): > 100 µM | GI50 (MCF7 breast): 3.33 µM | TGI (MCF7 breast): > 100 µM | GI50 (NCI-H23 lung): 4.38 µM | TGI (NCI-H23 lung): > 100 µM | GI50 (HOP-62 NSCLC): 5.23 µM | TGI (HOP-62 NSCLC): > 100 µM | GI50 (HCT-116 colon): 2.9 µM | TGI (HCT-116 colon): 21 µM | GI50 (SF-295 CNS): 2.66 µM | TGI (SF-295 CNS): 6.87 µM | GI50 (IGROV1 ovarian): 5.46 µM | TGI (IGROV1 ovarian): > 100 µM | GI50 (MDA-MB-231 breast): 2.21 µM | TGI (MDA-MB-231 breast): > 100 µM | GI50 (NCI-H226 lung): 3.93 µM | TGI (NCI-H226 lung): > 100 µM | GI50 (U251 CNS): 3.83 µM | TGI (U251 CNS): > 100 µM | GI50 (SW-620 colon): 3.46 µM | TGI (SW-620 colon): > 100 µM | GI50 (RPMI-8226 leukemia): 4.76 µM | TGI (RPMI-8226 leukemia): > 100 µM | GI50 (NCI-H460 lung): 3.26 µM | TGI (NCI-H460 lung): > 100 µM | GI50 (SR leukemia): 2.91 µM | TGI (SR leukemia): > 100 µM | GI50 (HCT-15 colon): 2.61 µM | TGI (HCT-15 colon): > 100 µM | GI50 (NCI-H522 lung): 8.02 µM | TGI (NCI-H522 lung): > 100 µM | GI50 (BT-549 breast): 5.35 µM | TGI (BT-549 breast): > 100 µM | GI50 (MDA-MB-435): 5.87 µM | TGI (MDA-MB-435): > 100 µM | GI50 (HS 578T breast): 4.17 µM | TGI (HS 578T breast): > 100 µM | GI50 (CCRF-CEM leukemia): 4.07 µM | TGI (CCRF-CEM leukemia): > 100 µM | GI50 (ACHN renal): 2.85 µM | TGI (ACHN renal): > 100 µM | GI50 (SK-MEL-2 melanoma): 8.36 µM | TGI (SK-MEL-2 melanoma): > 100 µM | GI50 (786-0 renal): 1.97 µM | TGI (786-0 renal): > 100 µM | GI50 (EKVX NSCLC): 5.79 µM | TGI (EKVX NSCLC): > 100 µM | GI50 (SK-OV-3 ovarian): 4.41 µM | TGI (SK-OV-3 ovarian): > 100 µM | GI50 (SN12C renal): 4.96 µM | TGI (SN12C renal): > 100 µM | GI50 (T-47D breast): 6.47 µM | TGI (T-47D breast): > 100 µM | GI50 (A549 NSCLC): 3.4 µM | TGI (A549 NSCLC): > 100 µM | GI50 (OVCAR-3 ovarian): 6.04 µM | TGI (OVCAR-3 ovarian): > 100 µM | GI50 (UACC-62 melanoma): 3.66 µM | TGI (UACC-62 melanoma): > 100 µM | GI50 (MOLT-4 leukemia): 3.13 µM | TGI (MOLT-4 leukemia): > 100 µM | GI50 (HOP-92 NSCLC): 2.13 µM | TGI (HOP-92 NSCLC): 8.12 µM | GI50 (HCC-2998 colon): 67.3 µM | TGI (HCC-2998 colon): > 100 µM | GI50 (PC-3 prostate): 4.33 µM | TGI (PC-3 prostate): > 100 µM | GI50 (SK-MEL-28 melanoma): 6.43 µM | TGI (SK-MEL-28 melanoma): > 100 µM | GI50 (KM12 colon): 3.56 µM | TGI (KM12 colon): > 100 µM | GI50 (UO-31 renal): 1.41 µM | TGI (UO-31 renal): > 100 µM

— PubChem BioAssay (NCI)
